Experimental findings from patent US10071084B2, “Nanoparticle, method of preparating the same, and use of the nanoparticle” (Samsung Electronics Co., Ltd., priority 2013, dated 2018) are described below.

This test deals with HepG2 liver cancer cells. The test can be described thus: Cytotoxicity by released nanoparticles containing SRF and BSA: cell viability, CCK-8 kit. The class given is cell-based. The conditions noted are these: Homo sapiens, 50 μM SRF dissolved in DMSO, 3 hours incubation at 37° C., then 3 days in fresh medium, relative to DMSO-treated cells. On the procedure: Liposomes that were sonicated were incubated with cells to confirm the cell viability.
The liposomes of Example 4 were sonicated at a temperature of 25° C. for 16 minutes by using a pool-type sonicator (Branson).
The sonicated liposomes, unsonicated liposomes, 50 μM of SRF (Santa Cruz Biotechnology, Inc.) dissolved in dimethyl sulfoxide (DMSO) (Aldrich), or DMSO itself was added to about 5,000 HepG2 liver cancer cells, followed by being incubated at a temperature of 37° C. for 3 hours. Here, the medium used in the incubation was exchanged with fresh medium. The cells were incubated for at a temperature of 37° C. for 3 days, and number of the cells was counted by using a CCK-8 kit (Dojindo). The cell viability was relatively calculated with respect to the number of the cells that were treated with DMSO, and the results were shown in FIG. 7 (1: DMSO, 2: SRF dissolved in DMSO, 3: liposomes that are not sonicated, 4: liposomes that are sonicated for 16 minutes).
For orientation: Formazan colour is commonly taken as a measure of viable cells.

`CNC(=O)c1cc(Oc2ccc(NC(=O)Nc3ccc(Cl)c(C(F)(F)F)c3)cc2)ccn1` [SRF, sorafenib]: the viability at 50 µM is about 36%.

Usually viability stands for a per cent measure of how many cells are alive, often set against a control.
